Laboratory results as given in patent publication US4808703A, “Novel 3-(4'-aminobutylamino) propylaminobleomycin derivatives” (Zaidan Hojin Biseibutsu Kagaku Kenku Kai, priority 1983, dated 1989).
Read-outs that look alike come from different tables or passages of the source.

Legend:
[1] = test system: Mycobacterium smegmatis ATCC 607; settings: copper-free bleomycin A2; standard for both Mycobacterium smegmatis ATCC607 and Bacillus subtilis; cited from earlier work
[2] = test system: Mycobacterium smegmatis ATCC 607; experiment: Antibacterial activity by the agar cylinder plate method, Mycobacterium smegmatis ATCC607; format: cell-based; settings: copper-containing compound, standard bleomycin A2 = 1,000 mcg potency/mg
Excerpt: (§1) (1) Antibacterial activity against Mycobacterium smegmatis ATCC607 and Bacillus subtilis
(§2) The above activity ws determined by the agar cylinder plate method using the above microorganisms.

Bacillus subtilis = experiment: Antibacterial activity by the agar cylinder plate method, Bacillus subtilis; format: cell-based; settings: copper-containing compound, standard bleomycin A2 = 1,000 mcg potency/mg
Excerpt: as §1, §2

HeLa S3 cells = experiment: Growth-inhibiting effect on HeLa S3 cell cultured; format: cell-based; settings: 3 days of incubation after addition
Method: (2) Growth-inhibiting effect on HeLa S3 cell cultured
A culture medium (10% calf serum-containing MEM) in a plastic dish was inoculated with HeLa S3 cells, and a bleomycin compound was added 2 days later. Incubation was continued for a further 3 days, and then the number of viable cells was counted. Growth inhibitory rate was calculated from the following equation:
Growth inhibitory rate (%)=100×(B-A)/(B-C)
where A is the final bacterial cell count 3 days after addition of the test sample, B is the final bacterial cell count in the control involving no addition of the test sample, and C is the bacterial cell count at the time of addition of the test sample.
ID50, the concentration producing a growth inhibitory rate of 50%, was estimated from the curve of the concentration of the test sample Vs. the growth inhibitory rate.

ICR mice [3] = settings: mouse, in vivo
Method: (§3) ICR mice (male, 15-week-old) were used in groups of 10 each. The dose of each test compound was 5 mg/kg injected intraperitoneally once daily for 10 consecutive days. After the administration of the compound was completed, the animals were reared for 5 weeks for observation. Then, the animals were killed and autopsied so that the incidence and grade of pulmonary fibrosis were examined.
(§4) The incidence of pulmonary fibrosis was expressed as the number of mice developing pulmonary fibrosis in the group of mice administered the test compound. The grade of pulmonary fibrosis was expressed as the total score for pulmonary fibrosis divided by the total number of specimens.
(§5) 1 point: Accumulation of exudate in the alveoli, and fibrosis-like changes seen in the alveolar septum.
(§6) 2 points: Fibrosis seen at several sites.
4 points: Sporadic fibrosis.
(§7) 6 points: Extensive fibrosis (fibrosis seen in more than 170 of the total region).
(§8) The ratio in the table represents the ratio of the incidence of the test compound to that of bleomycin complex, or the ratio of the grade of the test compound to that of bleomycin complex.

ICR mice [4] = experiment: Pulmonary toxicity (fibrosis of the lung) in mice
Method: as §3, §4, §5, §6
4 points: Sporadic fibrosis.
as §7, §8

Compound	Titer of the standard substance bleomycin A2 [1]	Antibacterial titer of copper-compound [2] [mcg potency/mg]	Antibacterial titer of copper-compound (Bacillus subtilis) [mcg potency/mg]	ID50 of copper-free compound (concentration producing a growth inhibitory rate of 50%) (HeLa S3 cells) [µg/mL]	Grade ratio (ICR mice [3])	Incidence ratio (ICR mice [3])	Incidence: Number of mice with pulmonary fibrosis/Number of mice in the treatment group (ICR mice [3])	Incidence: Number of mice with pulmonary fibrosis/Number of mice in the treatment group (ICR mice [4]; 5 mg/kg i.p. once daily for 10 days, autopsy after 5 weeks of observation, count)	Incidence (%) of pulmonary fibrosis (ICR mice [4]; 5 mg/kg i.p. once daily for 10 days, autopsy after 5 weeks of observation, percentage in parentheses) [%]	Grade: Total score for pulmonary fibrosis/Total specimens (ICR mice [4]; 5 mg/kg i.p. once daily for 10 days, autopsy after 5 weeks, scores 0, 1, 2, 4, 6 points, fraction)	Grade of pulmonary fibrosis (total score divided by total number of specimens) (ICR mice [4]; 5 mg/kg i.p. once daily for 10 days, autopsy after 5 weeks, scores 0, 1, 2, 4, 6 points, value in parentheses)	Grade ratio (ICR mice [4]; grade of the test compound to that of bleomycin complex)	Incidence ratio (ICR mice [4]; incidence of the test compound to that of bleomycin complex)
Cc1c(N)nc(C(CC(N)=O)NCC(N)C(N)=O)nc1C(=O)NC(C(=O)NC(C)C(O)C(C)C(=O)NC(C(=O)NCCc1nc(-c2nc(C(=O)NCCC[S+](C)C)cs2)cs1)C(C)O)C(OC1OC(CO)C(O)C(O)C1OC1OC(CO)C(O)C(OC(N)=O)C1O)c1cnc[nH]1 (stereo not drawn) [bleomycin A2]	1,000 mcg potency/mg												
3-(4'-cycloundecanylmethylaminobutylamino)propylaminobleomycin [Compound 7]		24240	7330	0.16	0.00	0.00	0/10						
Cc1ccc(CN(CCCCN(Cc2ccc(C)cc2)Cc2ccc(C)cc2)CCCNC(=O)c2csc(-c3csc(CCNC(=O)C(NC(=O)C(C)C(O)C(C)NC(=O)C(NC(=O)c4nc(C(CC(N)=O)NCC(N)C(N)=O)nc(N)c4C)C(OC4OC(CO)C(O)C(O)C4OC4OC(CO)C(O)C(OC(N)=O)C4O)c4cnc[nH]4)C(C)O)n3)n2)cc1 (stereo not drawn) [Compound 5, 3-{N--p-methylbenzyl-N--[4'-bis(p-methylbenzyl)aminobutyl]amino}propylaminobleomycin]		4560	203					0/10	0	0/30	0	0.00	0.00
